Measurements published in paper PMC7780349 (Cell, 2020).
Values after ≈ are worked out from the molar mass of the structure shown. Where two headings read alike, the source gives them in different places.

How the values were obtained:
E. coli lptD4213 [1] = assay: Membrane potential and permeability assay; details: E. coli lptD4213, 15 min treatment
B. subtilis 168 = assay: Minimum inhibitory concentration assay; format: cell-based
[2] = target: E. coli dihydrofolate reductase (FolA) (Escherichia coli, UniProt P0ABQ4); assay: Dihydrofolate reductase activity assay; format: biochemical
[3] = system: B. subtilis dfrA and folC CRISPRi knockdown mutants; format: cell-based; details: growth (OD600) after 14 h relative to DMSO
E. coli lptD4213 [4] = assay: Minimum inhibitory concentration assay; details: for MIC: concentration printed as 1× MIC
S. aureus MRSA USA300 [5] = assay: Minimum inhibitory concentration assay
A. baumannii AB17978 [6] = assay: Minimum inhibitory concentration assay
PBMC = assay: Mammalian cell cytotoxicity; format: cell-based; details: 72 hours
[7] = Maximal tolerated dose in mice; format: in vivo; details: intravenously
[8] = Mouse liver microsomal stability; format: in vitro ADME; details: 2 μM, 0.5 mg/mL microsomes, NADPH and UDPGA, 1 hour; compared to verapamil
[9] = system: N. gonorrhoeae ATCC 700825; assay: Neisseria gonorrhea vaginal infection model; format: in vivo, BALB/c mice; details: 10 mg/kg i.v. at 2 and 14 h post-infection, CFUs at 26 h; p < 0.05 vs vehicle
[10] = system: mammalian cells (HEK293, HK-2, HLF, PBMC)
N. gonorrhoeae = assay: Minimum inhibitory concentration assay; details: bacterial culture
E. coli NCM3722 = assay: Minimum inhibitory concentration assay; format: cell-based; details: Escherichia coli
[11] = system: folate metabolite pools in E. coli NCM3722; assay: Metabolomics of folate metabolite pools; format: cell-based; details: 13.9 μg/mL (1× MIC), 15 min
[12] = target: dihydrofolate reductase (FolA) (Escherichia coli, UniProt P0ABQ4); assay: Thermal proteome profiling; format: binding; details: E. coli lptD4213 intact cells and cell lysates
E. coli lptD4213 [13] = assay: Colony forming units assay; format: cell-based; details: E. coli lptD4213, 3-h treatment, 2× MIC
[14] = system: S. aureus MRSA USA300 persister cells; assay: S. aureus MRSA persister cell assay; format: cell-based, Staphylococcus aureus; details: 2 h treatment
S. aureus MRSA USA300 [15] = assay: Serial passaging assay to evolve resistance; format: cell-based, Staphylococcus aureus; details: S. aureus MRSA USA300, 25 days, sub-lethal concentrations
A. baumannii AB17978 [16] = assay: Serial passaging assay to evolve resistance; format: cell-based, Acinetobacter baumannii
MRSA USA300 = assay: Isolation of resistant mutants by plating on drug agar; format: cell-based, Staphylococcus aureus; details: ~10^8 CFU on agar with 25 μg/mL SCH-79797 (4X MIC)
B. subtilis = assay: Isolation of resistant mutants by plating; format: cell-based; details: ~10^8 CFUs
E. coli lptD4213 ΔthyA = assay: Growth of wild-type and ΔthyA cells with thymine; format: cell-based; details: excess thymine in the medium
G. mellonella = assay: Galleria mellonella host toxicity; format: in vivo; details: injection at four times the MIC toward A. baumannii
A. baumannii AB17978 [17] = assay: Galleria mellonella killing assay; format: in vivo; details: lethal dose of A. baumannii AB17978; 67 μg/larva; p < 0.001
HK-2 = format: cell-based
HEK293 = format: cell-based
HLF = format: cell-based
[18] = animals; ref Gobbetti et al., 2012; Strande et al., 2007; cited from earlier work
E. cloacae = assay: Minimum inhibitory concentration assay
P. aeruginosa = assay: Minimum inhibitory concentration assay

Sequence of E. coli dihydrofolate reductase (FolA) (P0ABQ4 whole entry): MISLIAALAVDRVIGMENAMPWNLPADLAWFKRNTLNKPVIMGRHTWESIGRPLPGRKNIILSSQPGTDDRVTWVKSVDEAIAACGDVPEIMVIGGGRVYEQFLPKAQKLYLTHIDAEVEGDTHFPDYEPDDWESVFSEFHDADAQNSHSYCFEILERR
Sequence of dihydrofolate reductase (FolA) (P0ABQ4 whole entry): as above

N#CC(C#N)=NNc1cccc(Cl)c1 [CCCP]
membrane potential and permeability (DiOC2(3) and TO-PRO-3 staining) (E. coli lptD4213 [1]): expected shifts in both DiOC2(3) and TO-PRO-3 staining

Nc1nc(N)c2c(ccc3[nH]ccc32)n1 [IRS-10]
potency compared to the parent molecule SCH-79797 (B. subtilis 168; B. subtilis 168): decreased the potency
IC50 ([2]; read-out: IC50 against FolA, 60 μM NADPH and 100 μM DHF, Hill fit): 0.065 ± 0.019 µM
sensitivity of dfrA and folC CRISPRi knockdowns [3]: maintains the ability to inhibit folate metabolism
potency compared to the parent molecule SCH-79797 (E. coli lptD4213 [4]): increased the potency
MIC (E. coli lptD4213 [4]): 0.4 mg/L (≈ 2.01 µM)
potency compared to the parent molecule SCH-79797 (S. aureus MRSA USA300 [5]; MRSA USA300): decreased the potency
potency compared to the parent molecule SCH-79797 (A. baumannii AB17978 [6]): decreased the potency
membrane potential and permeability (DiOC2(3) and TO-PRO-3 staining) (E. coli lptD4213 [1]): does not disrupt membrane polarity or permeability

Nc1nc(N)c2c(ccc3c2ccn3Cc2ccc(-c3ccccc3)cc2)n1 [IRS-16]
sensitivity of dfrA and folC CRISPRi knockdowns [3]: hypersensitive
MIC against PBMC (PBMC): greater than the maximal drug concentrations tested
maximal tolerated dose (MTD) [7]: 15 mg/kg
stability in mouse liver microsomes [8]: extremely stable
vaginal load of N. gonorrhoeae (CFU) [9]: significantly reduced the vaginal load
increase of therapeutic window relative to SCH-79797 [10]: > 100 fold
adverse effects (male CD-1 mice, single i.v. dose 15 mg/kg): no adverse effects
time at concentrations above the N. gonorrhoeae MIC (mice, 15 mg/kg i.v., MIC 0.03 μg/mL): ~48 h
half-life (mouse, in vivo, iv, 15 mg/kg): 15.8 h
MIC (E. coli lptD4213 [4]): 0.02 mg/L (≈ 0.0547 µM)
MIC (N. gonorrhoeae): 0.03 mg/L (≈ 0.0821 µM)
membrane potential and permeability (DiOC2(3) and TO-PRO-3 staining) (E. coli lptD4213 [1]): disrupted membrane permeability and polarity

CC(C)c1ccc(Cn2ccc3c4c(N)nc(NC5CC5)nc4ccc32)cc1 [SCH-79797, N3-cyclopropyl-7-[[4-(1-methylethyl)phenyl]methyl]-7H-pyrrolo[3,2-f]quinazoline-1,3-diamine]
MIC (E. coli NCM3722): 13.9 mg/L (≈ 37.4 µM)
MIC (B. subtilis 168; Bacillus subtilis, 168): 3.1 mg/L (≈ 8.34 µM)
IC50 [2]: 8.6 ± 3 µM
rise of 7,8-dihydrofolate (DHF) level compared to untreated cells [11]: ~ 10 fold
thermal stability of dihydrofolate reductase (FolA) [12]: significantly shifted the thermal stability
sensitivity of dfrA and folC CRISPRi knockdowns [3]: sensitized
bactericidal activity (CFU) (E. coli lptD4213 [13]): potent and rapid bactericidal activity
viability of persister cells (CFU) [14]: robustly killed these persister cells
resistance on serial passaging (S. aureus MRSA USA300 [15]): no SCH-79797-resistant mutants emerged
resistance on serial passaging (A. baumannii AB17978 [16]): resistance remained constant
isolation of resistant mutants on plating (MRSA USA300): unable to isolate stable SCH-79797-resistant mutants
isolation of resistant mutants on plating (B. subtilis): unable to isolate SCH-79797-resistant mutants
sensitivity of ΔthyA versus wild-type cells (E. coli lptD4213 ΔthyA): no change in sensitivity
host toxicity (G. mellonella): did not result in higher host toxicity than the solvent-only control
survival of infected larvae (A. baumannii AB17978 [17]): significantly prolonged the survival
growth inhibition of mammalian cells relative to antibacterial dose (HK-2): at doses comparable to the doses needed to kill bacteria
growth inhibition of mammalian cells relative to antibacterial dose (HEK293): at doses comparable to the doses needed to kill bacteria
growth inhibition of mammalian cells relative to antibacterial dose (HLF): at doses comparable to the doses needed to kill bacteria
safely tolerated dose [18]: at least 5 mg/kg
MIC (S. aureus MRSA USA300 [5]; Staphylococcus aureus, MRSA|USA300): 6.3 mg/L (≈ 17 µM)
MIC (E. cloacae): greater the maximal drug concentrations tested
MIC (P. aeruginosa): greater the maximal drug concentrations tested
membrane potential and permeability (DiOC2(3) and TO-PRO-3 staining) (E. coli lptD4213 [1]): significant defects in both membrane polarization and permeability

CC(C)c1ccccc1 [isopropylbenzene]
sensitivity of dfrA and folC CRISPRi knockdowns [3]: no effect
membrane potential and permeability (DiOC2(3) and TO-PRO-3 staining) (E. coli lptD4213 [1]): disrupts both membrane polarity and permeability

CO[C@@H]1[C@@H](OC(N)=O)[C@@H](O)[C@H](Oc2ccc3c(O)c(NC(=O)c4ccc(O)c(CC=C(C)C)c4)c(=O)oc3c2C)OC1(C)C [novobiocin]
resistance on serial passaging (S. aureus MRSA USA300 [15]): resistance gradually increased
membrane potential and permeability (DiOC2(3) and TO-PRO-3 staining) (E. coli lptD4213 [1]): do not shift DiOC2(3) or TO-PRO-3 staining

CO[C@H]1/C=C/O[C@@]2(C)Oc3c(C)c(O)c4c(O)c(c(/C=N/N5CCN(C)CC5)c(O)c4c3C2=O)NC(=O)/C(C)=C\C=C\[C@H](C)[C@H](O)[C@@H](C)[C@@H](O)[C@@H](C)[C@H](OC(C)=O)[C@@H]1C [rifampicin]
membrane potential and permeability (DiOC2(3) and TO-PRO-3 staining) (E. coli lptD4213 [1]): do not shift DiOC2(3) or TO-PRO-3 staining

COc1cc(Cc2cnc(N)nc2N)cc(OC)c1OC [trimethoprim]
MIC (E. coli NCM3722): 0.15 mg/L (≈ 0.517 µM)
sensitivity of dfrA and folC CRISPRi knockdowns [3]: hypersensitive
sensitivity of ΔthyA versus wild-type cells (E. coli lptD4213 ΔthyA): led to trimethoprim resistance
membrane potential and permeability (DiOC2(3) and TO-PRO-3 staining) (E. coli lptD4213 [1]): no significant changes in DiOC2(3) and TO-PRO-3 staining

daptomycin
viability of persister cells (CFU) [14]: did not reduce the number of CFUs

nisin
resistance on serial passaging (S. aureus MRSA USA300 [15]): resistance gradually increased
membrane potential and permeability (DiOC2(3) and TO-PRO-3 staining) (E. coli lptD4213 [1]): expected shifts in both DiOC2(3) and TO-PRO-3 staining

polymyxin B
membrane potential and permeability (DiOC2(3) and TO-PRO-3 staining) (E. coli lptD4213 [1]): expected shifts in both DiOC2(3) and TO-PRO-3 staining
